{"source": "patent US6589992B2", "about": "“Inhibiting collagen-induced platelet aggregation” (Parker Hughes Institute, priority 1999, dated 2003)", "system": "ICR mice", "experiment": "Thromboplastin-induced fatal thromboembolism in mice", "assay_type": "in vivo", "details": "N=10", "procedure": "The mice were challenged with 25 mg/kg thromboplastin (Sigma, St. Louis, Mo.) via a bolus i.v. injection in to the tail vein as previously described (Sato et al., 1998). At the time of thromboembolism-related death, after the thromboplastin injection or elective sacrifice at 48 hours using ketamine/xylazine, all mice were perfused with PBS followed by 4% phosphate buffered formalin. PBS and formalin were pumped through the left ventricle of the heart and allowed to exit through a 3 mm incision through the anterior wall of the right ventricle."}
{"smiles": "CC(=O)CC(c1ccccc1)c1c(O)c2ccccc2oc1=O", "note": "(centres unmarked) [warfarin, reference compound]", "values": [{"measurement": "probability of event-free survival after thromboplastin challenge", "setting": "warfarin 3 mg/kg i.p. 18 hours prior", "value": "10±9", "unit": "%"}, {"measurement": "median survival time", "setting": "warfarin 3 mg/kg", "value": 5.3, "unit": "min"}]}
